# In ChEMBL document CHEMBL5518178 (Eur J Med Chem, 2024):
# Activity calls are given as the source filed them. No cut-off for these calls is given here.
# Columns and labels:
# [1] = system: HCT-116; test: Antiproliferative activity against human HCT-116 cells assessed as inhibition of cell growth incubated for 48 hrs by MTT assay; format: functional, cell-based; conditions: HCT-116, 48 h
# [2] = system: MGC-803; test: Anti-migratory activity against human MGC-803 cells assessed as inhibition of cell migration at 10 to 30 nmol/L measured for 48 hrs by crystal-violet staining based transwell migration assay; format: functional; conditions: dose 10-30 nmol/L
# [3] = system: MGC-803; test: Induction of apoptosis in human MGC-803 cells assessed as viable cells at 10 nmol/L incubated for 48 hrs by Annexin V-FITC/propidium iodide staining based flow cytometer analysis (reference value: 93.08 %); format: functional; conditions: read-out: Activity
# [4] = system: MGC-803; test: Induction of apoptosis in human MGC-803 cells assessed as early apoptotic cells at 10 nmol/L incubated for 48 hrs by Annexin V-FITC/propidium iodide staining based flow cytometer analysis (reference value: 4.38 %); format: functional
# [5] = Toxicity in BALB/c-nude mouse xenografted with human MGC-803 cells assessed as change in body weight at 30 mg/kg/day, ip administered for 18 days; format: organism-based; conditions: in vivo, 432 h, time 18 day
# [6] = system: MGC-803; test: Induction of apoptosis in human MGC-803 cells assessed as increase in cleaved PARP at 10 to 40 nmol/L incubated for 48 hrs by Western blotting; format: functional, cell-based; conditions: dose 10-40 nmol/L
# [7] = Toxicity in BALB/c-nude mouse xenografted with human MGC-803 cells assessed as alteration in liver tissue at 30 mg/kg/day, ip administered for 18 days by hematoxylin and eosin staining based analysis; format: organism-based; conditions: in vivo, 432 h, time 18 day
# [8] = target: T1, Tubulin (Homo sapiens) (UniProt P68371+Q9H4B7+P0DPH7+P68366+Q13509+Q71U36+P04350+Q3ZCM7+P07437+P68363+Q9BQE3+Q6PEY2+Q13885+Q9BVA1+Q9BUF5); test: Inhibition of tubulin polymerization in human MGC-803 cells assessed as appearance of multinucleated cells at 10 to 40 nmol/L incubated for 48 hrs by DAPI staining based fluorescence microscopic analysis; format: cell-based; conditions: dose 10-40 nmol/L
# [9] = target: Tubulin beta (Homo sapiens) (UniProt P68371+Q9H4B7+Q13509+P04350+Q3ZCM7+P07437+Q13885+Q9BVA1+Q9BUF5+A6NNZ2); test: Binding affinity to beta-tubulin (unknown origin) colchicine binding site assessed as reduction in beta-tubulin-EBI adduct at 10 to 30 uM incubated for 2 hrs in presence of EBI by Western blotting; format: protein assay; conditions: dose 10-30 µM
# [10] = system: MGC-803; test: Induction of apoptosis in human MGC-803 cells assessed as necrotic cells at 40 nmol/L incubated for 48 hrs by Annexin V-FITC/propidium iodide staining based flow cytometer analysis (reference value: 0.32 %); format: functional
# [11] = system: MGC-803; test: Induction of apoptosis in human MGC-803 cells assessed as caspase-9 cleavage at 10 to 40 nmol/L incubated for 48 hrs by Western blotting; format: functional, cell-based; conditions: dose 10-40 nmol/L
# [12] = system: MGC-803; test: Antitumor activity against human MGC-803 cells xenografted in BALB/c-nude mouse assessed as tumor weight at 30 mg/kg/day, ip administered for 18 days (reference value: 0.656 g); format: functional; conditions: time 18 day
# [13] = system: MGC-803; test: Antiproliferative activity against human MGC-803 cells assessed as increase in nuclear brightness at 10 to 40 nmol/L incubated for 48 hrs by DAPI staining based fluorescence microscopic analysis; format: functional, cell-based; conditions: dose 10-40 nmol/L
# [14] = system: KYSE-30; test: Antiproliferative activity against human KYSE-30 cells assessed as inhibition of cell growth incubated for 48 hrs by MTT assay; format: functional, cell-based; conditions: KYSE-30, 48 h
# [15] = system: MGC-803; test: Induction of apoptosis in human MGC-803 cells assessed as late apoptotic cells at 10 nmol/L incubated for 48 hrs by Annexin V-FITC/propidium iodide staining based flow cytometer analysis (reference value: 2.22 %); format: functional
# [16] = system: MGC-803; test: Anti-migratory activity against human MGC-803 cells assessed as decrease in MMP-2 level at 10 to 40 nmol/L by Western blotting; format: functional, cell-based; conditions: dose 10-40 nmol/L
# [17] = system: MGC-803; test: Induction of apoptosis in human MGC-803 cells assessed as viable cells at 20 nmol/L incubated for 48 hrs by Annexin V-FITC/propidium iodide staining based flow cytometer analysis (reference value: 93.08 %); format: functional; conditions: read-out: Activity
# [18] = system: MGC-803; test: Induction of apoptosis in human MGC-803 cells assessed as late apoptotic cells at 20 nmol/L incubated for 48 hrs by Annexin V-FITC/propidium iodide staining based flow cytometer analysis (reference value: 2.22 %); format: functional
# [19] = system: MGC-803; test: Induction of apoptosis in human MGC-803 cells assessed as necrotic cells at 20 nmol/L incubated for 48 hrs by Annexin V-FITC/propidium iodide staining based flow cytometer analysis (reference value: 0.32 %); format: functional
# [20] = system: MGC-803; test: Antiproliferative activity against human MGC-803 cells assessed as reduction in cell viability at 20 to 80 nmol/L by MTT assay; format: functional, cell-based; conditions: dose 20-80 nmol/L, time 12-48 hrs, TDE = time-dependent effect
# [21] = system: MGC-803; test: Induction of apoptosis in human MGC-803 cells assessed as caspase-7 cleavage at 10 to 40 nmol/L incubated for 48 hrs by Western blotting; format: functional, cell-based; conditions: dose 10-40 nmol/L
# [22] = system: MGC-803; test: Antiproliferative activity against human MGC-803 cells assessed as increase in proportion of dead cells at 10 to 40 nmol/L incubated for 48 hrs by Calcein-AM/propidium iodide staining based fluorescence microscopic analysis; format: functional, cell-based; conditions: dose 10-40 nmol/L
# [23] = system: MGC-803; test: Anti-migratory activity against human MGC-803 cells assessed as decrease in MMP-9 level at 10 to 40 nmol/L by Western blotting; format: functional, cell-based; conditions: dose 10-40 nmol/L
# [24] = system: MGC-803; test: Induction of apoptosis in human MGC-803 cells assessed as necrotic cells at 10 nmol/L incubated for 48 hrs by Annexin V-FITC/propidium iodide staining based flow cytometer analysis (reference value: 0.32 %); format: functional
# [25] = system: MGC-803; test: Antiproliferative activity against human MGC-803 cells assessed as inhibition of cell growth incubated for 48 hrs by MTT assay; format: functional, cell-based; conditions: MGC-803, 48 h
# [26] = Toxicity in BALB/c-nude mouse xenografted with human MGC-803 cells assessed as alteration in lung tissue at 30 mg/kg/day, ip administered for 18 days by hematoxylin and eosin staining based analysis; format: organism-based; conditions: in vivo, 432 h, time 18 day
# [27] = system: MGC-803; test: Induction of apoptosis in human MGC-803 cells assessed as decrease in Bcl-xL protein level at 10 to 40 nmol/L incubated for 48 hrs by Western blotting; format: functional, cell-based; conditions: dose 10-40 nmol/L
# [28] = system: MGC-803; test: Induction of apoptosis in human MGC-803 cells assessed as viable cells at 40 nmol/L incubated for 48 hrs by Annexin V-FITC/propidium iodide staining based flow cytometer analysis (reference value: 93.08 %); format: functional; conditions: read-out: Activity
# [29] = Toxicity in BALB/c-nude mouse xenografted with human MGC-803 cells assessed as alteration in heart tissue at 30 mg/kg/day, ip administered for 18 days by hematoxylin and eosin staining based analysis; format: organism-based; conditions: in vivo, 432 h, time 18 day
# [30] = system: MGC-803; test: Induction of apoptosis in human MGC-803 cells assessed as late apoptotic cells at 40 nmol/L incubated for 48 hrs by Annexin V-FITC/propidium iodide staining based flow cytometer analysis (reference value: 2.22 %); format: functional
# [31] = system: MGC-803; test: Induction of apoptosis in human MGC-803 cells assessed as early apoptotic cells at 40 nmol/L incubated for 48 hrs by Annexin V-FITC/propidium iodide staining based flow cytometer analysis (reference value: 4.38 %); format: functional
# [32] = target: T1, Tubulin (Homo sapiens); test: Inhibition of tubulin polymerization (unknown origin) at 1 to 3 uM by fluorescence plate reader analysis; format: protein-complex assay; conditions: dose 1-3 µM
smiles,measurement,setting,value
COc1ccc2c(c1)CCCN2c1cc(=O)oc2ccccc12,IC50,[1],81 nM
same,Activity,[2],Active
same,viability at 0.01 µM,[3],92.2%
same,Activity,[4],4.68%
same,Activity,[5],Non-Toxic
same,Activity,[6],Active
same,Activity,[7],Non-Toxic
same,inhibition,[8],Active
same,Activity,[9],Active
same,Activity,[10],1.3%
same,Activity,[11],Active
same,Activity,[12],0.226 g
same,Activity,[13],Active
same,IC50,[14],190 nM
same,Activity,[15],2.8%
same,Activity,[16],Active
same,viability at 0.02 µM,[17],88%
same,Activity,[18],2.7%
same,Activity,[19],0.12%
same,Activity,[20],Tde
same,Activity,[21],Active
same,Activity,[22],Active
same,Activity,[23],Active
same,Activity,[24],0.34%
same,IC50,[25],34 nM
same,Activity,[26],Non-Toxic
same,Activity,[27],Active
same,viability at 0.04 µM,[28],39.1%
same,Activity,[29],Non-Toxic
same,Activity,[30],17.65%
same,Activity,[31],41.97%
same,inhibition,[32],Active
